Assay [1] concerns the target T1, BTK enzyme (recombinant full-length BTK, hBTK) (Homo sapiens, UniProt Q06187).
T1 construct: recombinant protein from baculovirus-transfected S 19 cells: full-length BTK, 6 HIS-tag cleaved; 6 HIS-tag (cleaved yes); made in house
The assay is described as follows: Btk enzyme activity assay (LANCE TR-FRET). Conditions: 50 pM hBTK, 25 μM ATP, 60 minute compound and enzyme incubation, concentration range 1 μM to 0.017 nM, read-out: BTK binding IC50. In kind it is biochemical. On the technique in general: TR-FRET usually uses a lanthanide donor and a delayed reading to cut background.

Assay [2] deals with adenosine uptake into HeLa cells. The assay is described as follows: [3H]Adenosine uptake assay. Conditions: Homo sapiens; accumulation of [3H]adenosine into HeLa cells; concentration range 10 μM to 0.032 nM; read-out: ADU inhibition IC50. Type of assay: cell-based. Put shortly: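 HeLa cells (25 000/well), plated overnight, were preincubated 30 minutes at ambient temperature with compound in HBSS + 5% FBS. Ten-point titrations ran from 10 μM to 0.032 nM final. [3H]adenosine was added from a 500 nM solution for 60 minutes, and uptake was measured by scintillation proximity counting; IC50 came from a 4-parameter fit.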

From US20170349593A1, “BTK INHIBITORS” (MERCK SHARP & DOHME CORP., priority 2014, published 2017) come the findings set out here.

Bounds are passed on as bounds.

T1 sequence (Q06187 whole entry): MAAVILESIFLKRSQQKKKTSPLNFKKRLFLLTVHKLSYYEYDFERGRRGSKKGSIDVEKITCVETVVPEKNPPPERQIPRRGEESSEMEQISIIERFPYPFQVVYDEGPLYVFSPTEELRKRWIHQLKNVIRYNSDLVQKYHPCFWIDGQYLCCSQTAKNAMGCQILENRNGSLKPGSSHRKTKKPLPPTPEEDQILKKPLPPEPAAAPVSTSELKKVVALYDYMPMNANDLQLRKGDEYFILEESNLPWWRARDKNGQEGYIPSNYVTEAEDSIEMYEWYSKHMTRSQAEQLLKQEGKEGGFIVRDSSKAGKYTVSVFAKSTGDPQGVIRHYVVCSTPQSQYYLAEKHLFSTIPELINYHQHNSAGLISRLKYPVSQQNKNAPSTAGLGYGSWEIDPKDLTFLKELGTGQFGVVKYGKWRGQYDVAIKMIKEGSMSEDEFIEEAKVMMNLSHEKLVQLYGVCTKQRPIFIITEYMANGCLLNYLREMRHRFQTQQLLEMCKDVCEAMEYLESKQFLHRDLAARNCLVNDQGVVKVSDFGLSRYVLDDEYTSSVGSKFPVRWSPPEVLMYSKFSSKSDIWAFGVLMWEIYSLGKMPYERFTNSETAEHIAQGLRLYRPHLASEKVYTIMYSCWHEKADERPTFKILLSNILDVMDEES

Broadly, the IC50 is the midpoint of a concentration-inhibition curve. Take `COc1cc(C(=O)Nc2cc(C(F)(F)F)ccn2)ccc1-c1nc([C@H]2CN(C(=O)C3CN(C(=O)C4CC4)C3)[C@@H](C)CO2)n2ccnc(N)c12` [Example 34, 4-{8-amino-3-[(2R,5S)-4-{[1-(cyclopropylcarbonyl)azetidin-3-yl]carbonyl}-5-methylmorpholin-2-yl]imidazo[1,5-a]pyrazin-1-yl}-3-methoxy-N-[4-(trifluoromethyl)pyridin-2-yl]benzamide]: the results for the IC50 in assay [1] and in assay [2] were 2.65 nM and at least 10000 nM, respectively.

In the case of `CCOc1cc(C(=O)Nc2cc(C(F)(F)F)ccn2)ccc1-c1nc([C@@H]2CC[C@@H](C(F)(F)F)N(C(=O)C3CC3)C2)n2ccnc(N)c12` [Example 4, 4-{8-amino-3-[(3R,6S)-1-(cyclopropylcarbonyl)-6-(trifluoromethyl)piperidin-3-yl]imidazo[1,5-a]pyrazin-1-yl}-3-ethoxy-N-[4-(trifluoromethyl)pyridin-2-yl]benzamide], the concentration for half-maximal inhibition (IC50) in assay [1] was determined as 39.4 nM; in assay [2], 1060 nM.

For `COc1cc(C(=O)Nc2cc(C(F)(F)F)ccn2)ccc1-c1nc([C@H]2CN(C(=O)[C@H](C)O)[C@@H](C)CO2)n2ccnc(N)c12` [Example 52, 4-(8-amino-3-{(2R,5S)-4-[(2S)-2-hydroxypropanoyl]-5-methylmorpholin-2-yl}imidazo[1,5-a]pyrazin-1-yl)-3-methoxy-N-[4-(trifluoromethyl)pyridin-2-yl]benzamide], the IC50 was determined as 2.26 nM in assay [1] and 1990 nM in assay [2].

For `CC(=O)N1C[C@H](c2nc(-c3ccc(C(=O)Nc4cc(C(F)(F)F)ccn4)cc3F)c3c(N)nccn23)OC[C@@H]1C` [Example 88, 4-{3-[(2R,5S)-4-acetyl-5-methylmorpholin-2-yl]-8-aminoimidazo[1,5-a]pyrazin-1-yl}-3-fluoro-N-[4-(trifluoromethyl)pyridin-2-yl]benzamide], the values for the half-inhibitory concentration (IC50) in assay [1] and in assay [2] were 0.343 nM and 215 nM, respectively.
